Results from patent US20050032111A1, “Cadherin-11 as an indicator of viable pregnancy” (priority 1997, published 2005).
Where “and” joins values, the source holds several entries; their conditions need not be identical. Equal entries are not always repeated. Entries after “also recorded” stand apart in the source; their conditions may differ. Structures can show the parent of a compound that is named as a salt.

Tests used:
cad-11 protein = experiment: Western blot analysis of cad-11 protein in cultured endometrial stromal cells; type: cell-based, human; details: for cad-11 protein expression levels over time: Example 4C, P4 1 μM, E2 30 nM, DHT 0.1 μM, 0-96 h, P4 effect continued to increase until 86 h [sic]
Experimental: (§1) Endometrial stroma cells were isolated from secretory endometrium as described above. The stroma cells were grown to confluence, washed with PBS, and cultured in DMEM containing charcoal stripped FCS for a further 24 h. The culture medium was removed, and after the cells had been washed twice with PBS, replaced with fresh DMEM containing charcoal stripped FCS. The cells were harvested for either Northern (see Example 5) or Western blot analysis (see Example 6) after 24 h of culture in the presence or absence of steroids in the culture medium P4 (0.1-1 μM), E2 (30 nm), or vehicle (0.1% ethanol).
(§2) Endometrial stromal cells were separated from the glandular epithelium by enzymatic digestion and mechanical dissociation as described above. The endometrial stromal cells were washed once in phenol red-free Dulbecco'e Modified Eagle's medium (DMEM) containing 10% charcoal-stripped fetal bovine serum (FBS) before being resuspended and plated in DMEM containing 25 mM glucose, […] L-glutamine, antibiotics (100 U/ml penicillin, 100 μg/ml streptomycin and 2.5 μg/ml fungizone), and supplemented with 30% charcoal-stripped FBS. The culture medium was replaced 30 min after plating in order to reduce epithelial cell contamination. The purity of the cell cultures was determined by immunocytochemical staining for vimentin, cytokeratin, muscle actin, and factor VIII.
(§3) The stromal cells (passage 2) were grown to confluence, washed with PBS, and cultured in phenol, red-free DMEM supplemented with 10% charcoal-stripped FBS is and containing either progesterone (P4 1 μM), 17β-estradiol (E2, 30 nM), the non-aromatisable androgen dihydrotestosterone (DHT, 0.1 μM) or vehicle (0.1% ethanol). The cells were cultured in the presence or absence of the steroids for 0, 6, 12, 24, 48, 72 or 96 h before being harvested for Northern or Western blot analysis as described in Examples 5 and 6 using the probe described in Example 4A.
(§4) To determine whether a combination of steroids was required for maximal cad-11 expression in endometrial stromal cells, the cells (prepared as described above) were cultured in the presence of P4 (1 μM) plus E2 (30 nM), or P4 (1 μM) plus DHT (0.1 μM) for 0, 6, 12, 24, 48, 72 or 96 h before being harvested for Northern or Western blot analysis as described above.
(§5) To determine whether the ability of E2 to potentiate the effects of P4 on stromal cad-11 expression was dose-dependent, the cells were cultured in the presence of vehicle (0.1% ethanol), E2 (30 nM), P4 (1 μM) or P4 (1 μM) plus varying doses of E2 ([…]) for 96 h. 30 nM is approximately equivalent to physiological levels. The cells were then harvested for Northern and Western blot analysis using the procedures described above.
Cell cultures were rinsed three times with PBS and drained. The cells were incubated in 100 μl of cell lysis buffer (Tris HCL, pH 7.5 containing 0.5 NP-40, 0.5 mM CaCl2, and 1.0 mM PMSF) at 4° C. for 30 min on a rocking platform. Cell lysates were collected by scraping plate with a plastic spatula. The cell lysates were centrifuged at 10,000 xg for 20 min, and the supernatant was used in the Western Blot analyses or stored at −70° C. Aliquots from the samples were subjected to SDS polyacrylamide gel electrophoresis under reducing conditions. The stacking gels contained 5% acrylamide, and the separating gels were composed of 7.5% acrylamide. The proteins were electrophoretically transferred from the gels onto nitrocellulose membrane. The nitrocellulose blots were probed with the mouse monoclonal antibody (C11-113H) directed against human cad-11 (from ICOS Corporation, Bothell, Wash.) produced as described in Example 10 below. The Amersham ECL™ system was used to detect antibody bound to antigen.

cad-11 mRNA = experiment: Northern blot analysis of cad-11 mRNA in cultured endometrial stromal cells; type: cell-based, human; details: for stromal cad-11 mRNA levels over time: Example 4C, P4 1 μM, E2 30 nM, DHT 0.1 μM, 0-96 h, P4 effect continued to increase until 96 h; for cad-11 mRNA levels: Example 4B, 24 h culture, P4 0.1-1 μM, E2 30 nm
Experimental: as §1, §2, §3
To standardise the amounts of total RNA, the blots were also probed with a radiolabelled synthetic oligonucleotide specific for 18S rRNA. Radioautograms were scanned using an LKB laser densitometer. The absorbance values obtained for the cad-11 transcripts were normalised relative to the 18S rDNA absorbance value. Statistical differences between time points and treatments were assessed by the analysis of variance (ANOVA). Differences were considered to be significant for p <0.05.
as §4, §5
RNA Extraction using an RNAID™ kit (BIO 101, Inc.): • 1. 500 μl cell solution+500 μl of 2M sodium acetate (pH 4.0). • 2. Vortex. • 3. Add 525 μl of chloroform/isoamyl alcohol. • 4. Vortex. • 5. Incubate on ice for 15 minutes. • 6. Spin at 4° C./10,000×g for 20 minutes. • 7. Transfer top phase (RNA rich portion) to a new vial, taking care not to touch the interface and bottom organic solvent part. • 8. Add ½ volume of chloroform/isoamyl alcohol. • 9. Vortex. • 10. Spin 2 min at 4° C./10,000×g. • 11. Transfer top phase to a new tube. • 12. Add 20 μl of RNA Matrix. • 13. Vortex 30 sec. • […].

[1] = test system: cad-11 in the endometrium; experiment: Cad-11 immunostaining (HSCORE) of endometrial biopsies after treatment; type: in vivo, human; details: for AFTER TREATMENT (HSCORE), cad-11 expression in the endometrium: women with primary habitual abortion and LPD, one line per patient 1-8; for effect of treatment on endometrial cad-11 expression: women with LPD-associated habitual abortion, degree of response variable
Experimental: The intensity of cad-11 immunostaining in the endometrial biopsies may be determined by the semiquantitative HSCORE technique which is routinely used in oncology for cancer cell counts. The HSCORE is a continuous value (from 0-4, respectively), in which a discriminatory level that designates positives and negatives for the test is determined. Typically, a consensus is made between counts carried out by two observers in a blinded fashion employing a double-headed microscope at low and high magnification.
(§6) The presence of cad-11 was examined in endometrial biopsies obtained from women presenting with primary (no prior live birth) habitual abortion in association with luteal phase deficiency (LPD). This group of women, who account for approximately 20% of the women attending the Recurrent Pregnancy Loss Clinic, B.C. Women's Hospital and Health Centre, University of British Columbia, Vancouver, Canada, are routinely treated with progesterone or clomiphene citrate (a nonsteroidal synthetic compound). Biopsy specimens were obtained from these women before and after treatment. Cad-11 expression/production was correlated with pregnancy outcome upon treatment. Present treatment of LPD consists of either vaginal progesterone suppositories or clomiphene citrate, with the dosage being adjusted until a repeat endometrial biopsy is considered to be “in phase” by morphological assessment.
LPD was diagnosed by traditional methods prior to determining cad-11 by immunostaining. To increase the likelihood of including only those individuals with authentic LPD, the criteria for inclusion in this study was two consecutive biopsies with a 3 days of maturation delay based on the first day of the next menses as determined by morphological assessment.
In 16 such patients, cad-11 immunostaining was examined in biopsies obtained before and after treatment with either progesterone (results shown in Table 1A) or clomiphene citrate (results shown in Table 1B). All 16 had return of normal in-phase morphology on subsequent biopsy. The endometrial biopsy specimens were then re-evaluated for cad-11 using immunohistochemical staining. Comparison of staining pattern and intensity was performed using a monoclonal antibody directed against human cadherin-11 and standard immunohistochemical techniques according to the protocol set out in Example 3. The intensity of cad-11 immunostaining in the endometrial biopsies was determined by the semiquantitative HSCORE technique as described above.
For Detection of Cad-11 in Endometrial Biopsy Specimens • Prepare diluent fresh 1% bovine serum albumin (BSA; Sigma Chem Co.)/1% Automation Buffer (AB; ESBE Lab.) (wt/vol).
For paraffin embedded endometrial biopsy specimen sections (5 μm): • 1. Wash tissue specimen thoroughly in phosphate-buffered saline (PBS). • 2. […]

[2] = test system: women presenting with primary habitual abortion and diagnosed with luteal phase deficiency; experiment: Pregnancy outcome upon treatment; type: in vivo, human; details: one line per patient 1-8
Description: as §6
However, different intensities of cad-11 immunostaining in the epithelial and stromal component of the endometrium observed in this cohort of women (HSCORES=0-4: Tables 1A and 1B). […] Conversely, a negative HSCORE (0-1) following treatment correlated with a subsequent pregnancy loss (spontaneous abortion).

[3] = Example 4E, P4 1 μM plus E2 0.5-100 nM, 96 h
[4] = Example 4E, with P4 1 μM, 96 h, versus 30 nM E2
[5] = Example 4F, cultured endometrial stromal cells
[6] = Treatment: Progesterone Suppositories

C[C@]12CCC(=O)C[C@@H]1CC[C@@H]1[C@@H]2CC[C@]2(C)[C@@H](O)CC[C@@H]12 [DHT, dihydrotestosterone]
cad-11 protein expression levels over time (cad-11 protein): No significant increase in cad-11 expression levels
stromal cad-11 mRNA levels over time (cad-11 mRNA): did not significantly increase cad-11 mRNA levels

C[C@]12CC[C@@H]3c4ccc(O)cc4CC[C@H]3[C@@H]1CC[C@@H]2O [E2, 17β-estradiol]
cad-11 protein expression levels over time (cad-11 protein): No significant increase in cad-11 expression levels
potentiation of P4-mediated increase in stromal cad-11 protein by increasing doses of E2 (cad-11 protein; [3]): progressively enhanced the effects of P4
E2 concentration at which maximum cad-11 protein expression level was observed (cad-11 protein; Example 4E, with P4 1 μM, 96 h): 30 nM
enhancement of stromal cad-11 protein when E2 was increased to 100 nM (cad-11 protein; [4]): no further enhancement
potentiation of the progestin-mediated increase in cad-11 protein (cad-11 protein; [5]): potentiate this effect
cad-11 mRNA levels (cad-11 mRNA): little effect on cad-11 mRNA levels
stromal cad-11 mRNA levels over time (cad-11 mRNA): did not significantly increase cad-11 mRNA levels
potentiation of P4-mediated increase in stromal cad-11 mRNA by increasing doses of E2 (cad-11 mRNA; [3]): progressively enhanced the effects of P4
E2 concentration at which maximum cad-11 mRNA expression level was observed (cad-11 mRNA; Example 4E, with P4 1 μM, 96 h): 30 nM
enhancement of stromal cad-11 mRNA when E2 was increased to 100 nM (cad-11 mRNA; [4]): no further enhancement
potentiation of the progestin-mediated increase in cad-11 mRNA (cad-11 mRNA; [5]): potentiate this effect

CC(=O)[C@H]1CC[C@H]2[C@@H]3CC=C4C[C@@H](O)CC[C@]4(C)[C@H]3CC[C@]12C [Pregnenolone]
regulation of cad-11 protein expression by steroid alone (cad-11 protein; [5]): increased cad-11 expression
regulation of cad-11 mRNA expression by steroid alone (cad-11 mRNA; [5]): increased cad-11 expression

CCN(CC)CCOc1ccc(C(=C(Cl)c2ccccc2)c2ccccc2)cc1 [clomiphene citrate]
AFTER TREATMENT (HSCORE), cad-11 expression in the endometrium ([1]; Treatment: Clomiphene Citrate): 4 (positive) HSCORE (2×) and 2 (equivocal) HSCORE and 1 (negative) HSCORE (2×) and 0 (negative) HSCORE and 3 (positive) HSCORE (2×)
effect of treatment on endometrial cad-11 expression [1]: capable of increasing endometrial cad-11 expression
PREGNANCY OUTCOME ([2]; Treatment: Clomiphene Citrate): successful; also recorded: spontaneous

CC(=O)O[C@]1(C(C)=O)CC[C@H]2[C@@H]3C[C@H](C)C4=CC(=O)CC[C@]4(C)[C@H]3CC[C@@]21C [medroxyprogesterone acetate]
regulation of cad-11 protein expression by steroid alone (cad-11 protein; [5]): increased cad-11 expression
regulation of cad-11 mRNA expression by steroid alone (cad-11 mRNA; [5]): increased cad-11 expression

CC(=O)[C@H]1CC[C@H]2[C@@H]3CCC4=CC(=O)CC[C@]4(C)[C@H]3CC[C@]12C [progesterone]
stromal cad-11 protein (cad-11 protein; Example 4B, 24 h culture, P4 0.1-1 μM): induced an increase in stromal cad-11 protein
cad-11 protein expression levels over time (cad-11 protein): increase in cad-11 expression after 24 h
regulation of cad-11 protein expression by steroid alone (cad-11 protein; [5]): increased cad-11 expression
AFTER TREATMENT (HSCORE), cad-11 expression in the endometrium [1, 6]: 3 (positive) HSCORE (2×) and 4 (positive) HSCORE (2×) and 2 (equivocal) HSCORE and 1 (negative) HSCORE (2×) and 0 (negative) HSCORE
effect of treatment on endometrial cad-11 expression [1]: capable of increasing endometrial cad-11 expression
PREGNANCY OUTCOME [2, 6]: successful; also recorded: spontaneous
cad-11 mRNA levels (cad-11 mRNA): increased cad-11 mRNA levels in a dose-dependent manner
stromal cad-11 mRNA levels over time (cad-11 mRNA): significant increase in the stromal cad-11 mRNA levels after 24 h
regulation of cad-11 mRNA expression by steroid alone (cad-11 mRNA; [5]): increased cad-11 expression
